One data set can be described thus: Nepafenac solubility. Type of data set: physicochemical. The following applies: aqueous buffer; PBS, pH 7.2 at 37° C. How it is done: Nepafenac is a monocarboxylic acid amide that is amfenac in which the carboxylic acid group has been converted into the corresponding carboxamide. Nepafenac is yellow crystalline or powdery substance practically insoluble in water (14 mcg/mL). Nepafenac is soluble in organic solvents such as ethanol, DMSO, and dimethyl formamide (DMF). The solubility of nepafenac in ethanol is approximately 0.5 mg/mL and approximately 30 mg/ml in DMSO and DMF. An aqueous suspension at 0.1% gives an average pH of 6.75. The coefficient partition n-octanol/water is 128. […] Nepafenac is an achiral substance and there are no possible variations in the stereochemical configuration.
Nepafenac solubility testing in PBS, pH 7.2 at 37° C. is approximately 102 mcg/mL.

For data set [1] the following is noted: cited from earlier work.
For data set [2] the following is noted: cited from earlier work. This is another data set of the same source.
The conditions of data set [3]: aqueous suspension at 0.1%; cited from earlier work.
The target of data set [4] is T1, cyclooxygenase-2 (COX-2) enzyme (Homo sapiens, UniProt P35354).
T1 sequence (P35354 18-604): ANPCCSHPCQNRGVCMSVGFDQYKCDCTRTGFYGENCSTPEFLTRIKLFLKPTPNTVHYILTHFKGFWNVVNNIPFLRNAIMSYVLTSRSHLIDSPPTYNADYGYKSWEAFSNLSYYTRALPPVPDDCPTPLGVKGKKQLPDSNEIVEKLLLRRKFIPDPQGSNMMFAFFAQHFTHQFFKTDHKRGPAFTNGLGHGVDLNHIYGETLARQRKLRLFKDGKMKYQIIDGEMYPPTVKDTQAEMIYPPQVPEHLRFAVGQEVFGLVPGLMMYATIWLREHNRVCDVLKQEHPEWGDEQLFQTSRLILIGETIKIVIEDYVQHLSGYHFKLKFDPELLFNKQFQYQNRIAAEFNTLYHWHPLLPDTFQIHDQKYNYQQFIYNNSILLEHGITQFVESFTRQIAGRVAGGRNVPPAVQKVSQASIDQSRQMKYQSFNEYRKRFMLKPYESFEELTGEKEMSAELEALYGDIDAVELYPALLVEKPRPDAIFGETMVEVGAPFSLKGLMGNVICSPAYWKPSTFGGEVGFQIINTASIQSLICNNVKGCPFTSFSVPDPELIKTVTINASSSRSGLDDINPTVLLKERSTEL
As to conditions: Walters et al., 2007; cited from earlier work.

The source of these data is patent US20250064760A1, “INTRACANALICULAR INSERT COMPRISING A NON-STEROIDAL ANTI-INFLAMMATORY AGENT” (OCULAR THERAPEUTIX, INC., priority 2022, published 2025).

By solubility is commonly meant the concentration that dissolves in the medium under given conditions. High values mean a readily soluble substance, low ones a poorly soluble substance. By IC50 is commonly meant the concentration that gives 50% inhibition.

Values after ≈ are worked out from the molar mass of the structure shown. Values joined by “and” are separate entries in the source; they are usually repeats but may differ in a detail not shown here. Equal entries are not always repeated.

For `NC(=O)Cc1cccc(C(=O)c2ccccc2)c1N` [Nepafenac, 2-(2-amino-3-benzoylphenyl)acetamide], the solubility in “Nepafenac solubility” was about 102 µg/mL (≈ 401 µM). Also, in data set [1] (DMF), the “solubility in DMF” value is given as “approximately 30 mg/ml”. The “solubility in DMSO” value in data set [1] (DMSO) is listed as “approximately 30 mg/ml”. In addition, in data set [1] (ethanol), the solubility in ethanol result is listed as “approximately 0.5 mg/mL”. Besides, the solubility in water in data set [1] (water) is 14 µg/mL (≈ 55.1 µM). Moreover, in data set [2], the coefficient partition n-octanol/water is given as 128. Moreover, the “average pH of aqueous suspension” value in data set [3] is 6.75.

Regarding `Nc1c(CC(=O)O)cccc1C(=O)c1ccccc1` [amfenac], in data set [4], the IC50 is ~1.76 nM and 1.76 nM.
